Assay results published in the NIST ThermoML archive (doi:10.1016/j.fluid.2011.08.011).
Where “and” joins values, the source holds several entries; their conditions need not be identical. Identical values can stand only once.

Tests used:
[1] = molar heat capacity at constant pressure; details: 101.33 kPa, Liquid, Small sample (50 mg) DSC
[2] = Liquid, Closed cell (Static) method
[3] = Molar enthalpy of transition or fusion; details: Crystal; DSC
[4] = Solid-liquid equilibrium temperature; details: 101.3 kPa; Crystal; DTA

CC(C)(C)[O-].CC(C)(C)[O-].CC(C)(C)[O-].CC(C)(C)[O-].[Hf+4] [hafnium(IV) 2-methylpropan-2-olate]
Details | molar heat capacity at constant pressure | vapor or sublimation pressure
[1], 293.83 K | 596.3 J/K/mol and 598.5 J/K/mol | –
[1], 298.94 K | 598.9 J/K/mol and 598.2 J/K/mol | –
[1], 304.04 K | 601.3 J/K/mol and 601.8 J/K/mol | –
[1], 309.15 K | 604.8 J/K/mol and 600.7 J/K/mol | –
[1], 314.25 K | 604.8 J/K/mol and 602.9 J/K/mol | –
[1], 319.35 K | 612.6 J/K/mol and 614.6 J/K/mol | –
[1], 324.46 K | 614.2 J/K/mol and 613.8 J/K/mol | –
[1], 329.56 K | 616.6 J/K/mol and 621.7 J/K/mol | –
[1], 334.66 K | 626.3 J/K/mol and 625.9 J/K/mol | –
[1], 339.77 K | 631.5 J/K/mol and 628.5 J/K/mol | –
[1], 344.88 K | 635.3 J/K/mol and 638.1 J/K/mol | –
[1], 349.98 K | 635.5 J/K/mol and 635.9 J/K/mol | –
[2], 280.65 K | – | 0.00169 kPa and 0.00172 kPa and 0.00174 kPa
[2], 283.15 K | – | 0.00214 kPa and 0.00217 kPa and 0.00219 kPa
[2], 285.65 K | – | 0.00279 kPa and 0.00282 kPa and 0.00284 kPa
[2], 288.15 K | – | 0.00362 kPa and 0.00364 kPa and 0.00361 kPa
[2], 290.65 K | – | 0.00443 kPa and 0.00442 kPa and 0.00444 kPa
[2], 293.15 K | – | 0.00563 kPa and 0.00565 kPa and 0.00564 kPa
[2], 295.65 K | – | 0.00722 kPa and 0.0072 kPa
[2], 298.15 K | – | 0.00874 kPa and 0.00873 kPa
[2], 300.65 K | – | 0.01111 kPa and 0.01107 kPa and 0.01104 kPa
[2], 303.15 K | – | 0.01348 kPa and 0.01346 kPa
[2], 305.67 K | – | 0.01669 kPa and 0.01664 kPa and 0.0166 kPa
[2], 308.17 K | – | 0.02071 kPa and 0.02061 kPa and 0.02059 kPa

Details | Molar enthalpy of transition or fusion [kcal/mol] | Solid-liquid equilibrium temperature
[3] | 7.72 | –
[4] | – | 271.9 K and 271.8 K and 271.7 K
